Experimental findings from patent publication US12503436B2, “Compounds and compositions for treating conditions associated with STING activity” (NOVARTIS PHARMA AG, priority 2021, dated 2025) are described below.

Sequence of STING (Q86WV6 whole entry R71H/G230A/H232R/R293Q): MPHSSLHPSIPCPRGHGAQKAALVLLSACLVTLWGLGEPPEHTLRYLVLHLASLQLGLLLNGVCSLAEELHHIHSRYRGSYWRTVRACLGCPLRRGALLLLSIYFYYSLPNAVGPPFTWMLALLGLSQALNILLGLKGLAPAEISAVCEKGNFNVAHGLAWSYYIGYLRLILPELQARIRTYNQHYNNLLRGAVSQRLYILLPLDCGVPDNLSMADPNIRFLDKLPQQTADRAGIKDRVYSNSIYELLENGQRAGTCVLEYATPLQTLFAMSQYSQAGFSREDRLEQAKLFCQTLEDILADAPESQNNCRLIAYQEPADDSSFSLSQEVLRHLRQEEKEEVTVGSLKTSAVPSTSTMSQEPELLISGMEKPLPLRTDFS

This assay has as its target STING (Homo sapiens, UniProt Q86WV6, G230A/H232R/R293Q/R71H). The assay is described as follows: STING reporter assay in THP1-Dual KO-IFNAR2 cells (2′3′cGAMP stimulation, luciferase reporter). In kind it is cell-based. The conditions noted are these: 15 μM 2′3′cGAMP stimulation, 24 h, read-out: Pharmaron, THP1_IFNAR2 STING 24 h Luci Normalized: GeoMean EC50. The method, boiled down: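 THP1-Dual KO-IFNAR2 cells (2×10E6 cells/mL) with compounds at 0.0017-100 μM final, stimulated with 15 μM final 2′3′cGAMP delivered by Lipofectamine 2000; 24 h at 37 °C. Luciferase in supernatant read with QUANTI-Luc Plus; EC50 derived from luminescence.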
`O=C(Nc1c[nH]c2ccc(CCOc3ccc(C(F)(F)F)cc3)cc12)C1(F)CC1` [Compound 400, 1-fluoro-N-(5-(2-(4-(trifluoromethyl)phenoxy)ethyl)-1H-indol-3-yl)cyclopropane-1-carboxamide]: the EC50 lay in the range of 200 to 1000 nM. The same measure for `CC(C)(C)CC(=O)Nc1c[nH]c2ccc(OCCc3ccc(C(F)(F)F)cc3)cc12` [Compound 202, 3,3-dimethyl-N-(5-(4-(trifluoromethyl)phenethoxy)-1H-indol-3-yl)butanamide]: 40 to 200 nM.

As for `O=C(Nc1c[nH]c2ccc(COCc3ccc(C(F)(F)F)cc3)cc12)C1CCC1` [Compound 109, N-(5-(((4-(trifluoromethyl)benzyl)oxy)methyl)-1H-indol-3-yl)cyclobutanecarboxamide], the EC50 fell in the range of 40 to 200 nM.

Take `O=C(Nc1c[nH]c2ccc(OCCc3ccc(C(F)(F)F)cc3)cc12)C1CC(F)(F)C1` [Compound 249, 3,3-difluoro-N-(5-(4-(trifluoromethyl)phenethoxy)-1H-indol-3-yl)cyclobutane-1-carboxamide]: the EC50 was in the range of 200 to 1000 nM. In the case of `CC(=O)Nc1c[nH]c2ccc(OCC[C@H]3CC[C@](O)(C(F)(F)F)CC3)cc12` [Compound 501, N-(5-(2-(cis-4-hydroxy-4-(trifluoromethyl)cyclohexyl)ethoxy)-1H-indol-3-yl)acetamide], the EC50 was in the range of 1000 to 5000 nM. For `CC(=O)Nc1c[nH]c2ccc(OCC3CCc4ccc(C(F)(F)F)cc4C3)cc12` (stereo not shown) [Compound 437, N-(5-((7-(trifluoromethyl)-1,2,3,4-tetrahydronaphthalen-2-yl)methoxy)-1H-indol-3-yl)acetamide], the EC50 is 200 to 1000 nM. For `C[C@H]1C[C@H](C(=O)Nc2c[nH]c3ccc(OCCc4ccc(C(F)(F)F)cc4)cc23)C1` [Compound 205, trans-3-methyl-N-(5-(4-(trifluoromethyl)phenethoxy)-1H-indol-3-yl)cyclobutane-1-carboxamide], the EC50 lay in the range of 40 to 200 nM. As to `CC1(F)CC(C(=O)Nc2c[nH]c3ccc(O[C@H]4C[C@H](c5ccc(C(F)(F)F)cc5)C4)cc23)C1` (stereo partly drawn) [Compound 469, 3-fluoro-3-methyl-N-{5-[(1R,3R)-3-[4-(trifluoromethyl)phenyl]cyclobutoxy]-1H-indol-3-yl}cyclobutane-1-carboxamide], the EC50 lay within 200 to 1000 nM. As for `O=C(Nc1c[nH]c2ccc(CCc3ccc(C(F)(F)F)cc3)cc12)C1CCC1` [Compound 141, N-(5-(4-(trifluoromethyl)phenethyl)-1H-indol-3-yl)cyclobutanecarboxamide], the EC50 was 1000 to 5000 nM. Consider `CC(=O)N[C@H]1C[C@@](C)(C(=O)Nc2c[nH]c3ccc(O[C@H]4C[C@@H](c5ccc(C(F)(F)F)cc5)C4)cc23)C1` [Compound 412, cis-3-acetamido-1-methyl-N-(5-(cis-3-(4-(trifluoromethyl)phenyl)cyclobutoxy)-1H-indol-3-yl)cyclobutane-1-carboxamide], for which the EC50 lay in the range of 1000 to 5000 nM. Consider `CC(=O)Nc1c[nH]c2cc(F)c(CCOc3ccc(C(F)(F)F)cc3)cc12` [Compound 223, N-(6-fluoro-5-(2-(4-(trifluoromethyl)phenoxy)ethyl)-1H-indol-3-yl)acetamide], for which the EC50 is 40 to 200 nM. The same measure for `CC1(C(=O)Nc2c[nH]c3ccc(O[C@H]4C[C@H](c5ccc(C(F)(F)F)cc5)C4)cc23)COC1` [Compound 148, 3-methyl-N-(5-(trans-3-(4-(trifluoromethyl)phenyl)cyclobutoxy)-1H-indol-3-yl)oxetane-3-carboxamide]: 200 to 1000 nM; for `CC(=O)Nc1c[nH]c2ccc(OCCc3ccc(S(F)(F)(F)(F)F)cc3)cc12` [Compound 169, N-(5-(4-(pentafluoro-16-sulfaneyl)phenethoxy)-1H-indol-3-yl)acetamide]: 40 to 200 nM; for `O=C(Nc1c[nH]c2ccc(O[C@H]3C[C@H](c4ccc(C(F)(F)F)cc4)C3)cc12)C1(F)CC1` [Compound 489, l-fluoro-N-{5-[(1R,3R)-3-[4-(trifluoromethyl)phenyl]cyclobutoxy]-1H-indol-3-yl}cyclopropane-1-carboxamide]: 200 to 1000 nM.

In the case of `N#CC1(C(=O)Nc2c[nH]c3ccc(O[C@H]4C[C@@H](c5ccc(C(F)(F)F)cc5)C4)cc23)CC1` [Compound 362, 1-cyano-N-(5-(cis-3-(4-(trifluoromethyl)phenyl)cyclobutoxy)-1H-indol-3-yl)cyclopropane-1-carboxamide], the EC50 lay within 200 to 1000 nM. Turning to `CC1(C(=O)Nc2c[nH]c3ccc(OCc4ccc(C(F)(F)F)cc4)cc23)CCNCC1` [Compound 528, 4-methyl-N-(5-((4-(trifluoromethyl)benzyl)oxy)-1H-indol-3-yl)piperidine-4-carboxamide], the EC50 was 5000 to 100000 nM. Consider `CC(=O)Nc1c[nH]c2ccc(OC(C)Cc3ccc(C(F)(F)F)cc3)cc12` (single isomer, unassigned) [Compound 285, N-(5-((1-(4-(trifluoromethyl)phenyl)propan-2-yl)oxy)-1H-indol-3-yl)acetamide], for which the EC50 was in the range of 1000 to 5000 nM. As to `CC(=O)Nc1c[nH]c2ccc(COCc3ccc(Cl)c(Cl)c3)cc12` [Compound 101, N-(5-(((3,4-dichlorobenzyl)oxy)methyl)-1H-indol-3-yl)acetamide], the EC50 was in the range of 200 to 1000 nM. On to `O=C(Nc1c[nH]c2ccc(O[C@H]3C[C@H](c4ccc(C(F)(F)F)nc4)C3)cc12)c1ccc(C(F)(F)F)cc1` [Compound 465, 4-(trifluoromethyl)-N-(5-(trans-3-(6-(trifluoromethyl)pyridin-3-yl)cyclobutoxy)-1H-indol-3-yl)benzamide], for which the EC50 fell in the range of 200 to 1000 nM. `CC1(C(=O)Nc2c[nH]c3ccc(CCOc4ccc(C(F)(F)F)cc4)cc23)CCOC1` (stereo not shown) [Compound 178, 3-methyl-N-(5-(2-(4-(trifluoromethyl)phenoxy)ethyl)-1H-indol-3-yl)tetrahydrofuran-3-carboxamide]: the EC50 fell in the range of 200 to 1000 nM. Under `CC1(C(=O)Nc2c[nH]c3ccc(O[C@H]4C[C@@H](c5ccc(C(F)(F)F)cc5)C4)cc23)CCCO1` (stereo partly drawn) [Compound 358, 2-methyl-N-(5-(cis-3-(4-(trifluoromethyl)phenyl)cyclobutoxy)-1H-indol-3-yl)tetrahydrofuran-2-carboxamide] stands 1000 to 5000 nM. Under `CC1(C(=O)Nc2c[nH]c3ccc(OCC[C@@H]4C[C@@H]5CN(CC(F)(F)F)C[C@@H]5C4)cc23)CCOCC1` [Compound 161, 4-methyl-N-(5-(2-((3aR,5r,6aS)-2-(2,2,2-trifluoroethyl)octahydrocyclopenta[c]pyrrol-5-yl)ethoxy)-1H-indol-3-yl)tetrahydro-2H-pyran-4-carboxamide] stands 40 to 200 nM.

Consider `CC(=O)Nc1c[nH]c2ccc(Oc3ccc(C(F)(F)F)nc3)cc12` [Compound 123, N-(5-((6-(trifluoromethyl)pyridin-3-yl)oxy)-1H-indol-3-yl)acetamide], for which the EC50 was in the range of 5000 to 100000 nM. Under `CC1(C)CC1C(=O)Nc1c[nH]c2ccc(O[C@H]3C[C@@H](c4ccc(C(F)(F)F)cc4)C3)cc12` (stereo partly drawn) [Compound 359, 2,2-dimethyl-N-(5-(cis-3-(4-(trifluoromethyl)phenyl)cyclobutoxy)-1H-indol-3-yl)cyclopropane-1-carboxamide] stands 40 to 200 nM; under `O=C(Nc1c[nH]c2ccc(CCOc3ccc(C(F)(F)F)cc3)cc12)C1COC1` [Compound 164, N-(5-(2-(4-(trifluoromethyl)phenoxy)ethyl)-1H-indol-3-yl)oxetane-3-carboxamide], 200 to 1000 nM.
